In ChEMBL document CHEMBL1201862, “PubChem BioAssay data set” (2004):
Activity calls are given as the source filed them.

Experiments:
[1] = molecular target: T1, Apoptotic protease-activating factor 1 (Homo sapiens, UniProt O14727); format: functional
T1 sequence (O14727 whole entry): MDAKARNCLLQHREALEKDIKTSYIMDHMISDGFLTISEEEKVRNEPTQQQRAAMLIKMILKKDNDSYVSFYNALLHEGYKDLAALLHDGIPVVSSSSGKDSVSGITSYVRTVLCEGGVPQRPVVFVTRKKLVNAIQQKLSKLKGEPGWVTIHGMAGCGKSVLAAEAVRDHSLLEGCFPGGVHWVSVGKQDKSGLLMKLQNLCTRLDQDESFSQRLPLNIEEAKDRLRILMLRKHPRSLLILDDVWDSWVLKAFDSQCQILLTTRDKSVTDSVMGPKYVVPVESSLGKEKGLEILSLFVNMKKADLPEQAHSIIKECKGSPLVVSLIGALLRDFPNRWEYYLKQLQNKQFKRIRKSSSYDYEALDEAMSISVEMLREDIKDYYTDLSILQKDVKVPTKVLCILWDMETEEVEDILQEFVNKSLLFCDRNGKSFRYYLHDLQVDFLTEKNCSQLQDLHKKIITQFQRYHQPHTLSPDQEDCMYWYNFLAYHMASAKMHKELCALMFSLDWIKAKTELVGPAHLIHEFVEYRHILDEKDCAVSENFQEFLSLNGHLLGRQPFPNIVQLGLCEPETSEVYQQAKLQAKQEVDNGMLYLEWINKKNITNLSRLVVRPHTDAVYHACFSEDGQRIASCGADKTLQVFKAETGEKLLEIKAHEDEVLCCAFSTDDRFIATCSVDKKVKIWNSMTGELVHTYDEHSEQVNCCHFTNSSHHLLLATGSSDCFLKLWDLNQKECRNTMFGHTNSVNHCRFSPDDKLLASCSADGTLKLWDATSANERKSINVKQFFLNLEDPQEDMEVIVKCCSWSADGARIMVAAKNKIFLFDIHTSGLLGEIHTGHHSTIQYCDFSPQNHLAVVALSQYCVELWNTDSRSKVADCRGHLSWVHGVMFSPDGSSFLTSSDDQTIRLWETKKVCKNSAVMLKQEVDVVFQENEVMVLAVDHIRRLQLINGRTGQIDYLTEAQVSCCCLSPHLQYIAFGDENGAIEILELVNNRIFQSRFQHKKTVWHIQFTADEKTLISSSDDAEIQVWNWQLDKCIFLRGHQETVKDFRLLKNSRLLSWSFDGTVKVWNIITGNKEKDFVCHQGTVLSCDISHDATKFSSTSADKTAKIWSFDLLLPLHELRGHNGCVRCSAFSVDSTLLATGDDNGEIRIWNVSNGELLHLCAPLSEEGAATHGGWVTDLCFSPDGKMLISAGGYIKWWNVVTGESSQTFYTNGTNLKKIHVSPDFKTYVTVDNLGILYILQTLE

[2] = molecular target: T2, Sphingosine 1-phosphate receptor 4 (Homo sapiens, UniProt O95977); test: Fluorescence dose response cell-based high throughput screening assay for antagonists of the Sphingosine 1-Phosphate Receptor 4 (S1P4). [Related pubchem assays: 1524 (Confirmation in triplicates.), 1510 (Primary screen.)]; format: functional
T2 sequence (O95977 whole entry): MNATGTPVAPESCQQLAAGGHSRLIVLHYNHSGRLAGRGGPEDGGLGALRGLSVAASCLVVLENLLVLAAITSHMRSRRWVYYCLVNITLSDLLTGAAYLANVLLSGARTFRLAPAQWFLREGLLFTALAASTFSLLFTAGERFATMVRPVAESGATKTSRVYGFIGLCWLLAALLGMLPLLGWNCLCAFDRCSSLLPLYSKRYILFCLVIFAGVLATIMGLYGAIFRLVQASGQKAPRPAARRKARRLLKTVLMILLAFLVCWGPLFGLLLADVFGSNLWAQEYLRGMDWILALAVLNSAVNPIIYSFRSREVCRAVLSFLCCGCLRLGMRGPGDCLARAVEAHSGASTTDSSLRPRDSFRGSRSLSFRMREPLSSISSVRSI

[3] = blockers of bursicon-stimulated LGR2 cAMP reporter – cell-based, HEK293, CRE-luciferase reporter, cherry pick, set 2, dose response (AID 743343); format: functional;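 further: transfected cells were stimulated with diluted bursicon conditioned medium after compound addition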
[4] = blockade of melanocortin 4 receptor signaling – cell-based, plate reader, cherry pick, counter-screen for LGR2 antagonist project, dose response (AID 743444); format: functional;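 further: transfected HEK 293 cells stimulated with alpha-MSH peptide; potency of inhibitors of the alpha-MSH evoked signal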
[5] = molecular target: Sphingosine 1-phosphate receptor 1 (Homo sapiens, UniProt P21453); format: functional;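 further: Tango beta-arrestin reporter U2OS cells stimulated with S1P near its EC80; inhibitor potency meaning antagonism of receptor activation by the natural agonist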
Sphingosine 1-phosphate receptor 1, sequence (P21453 whole entry): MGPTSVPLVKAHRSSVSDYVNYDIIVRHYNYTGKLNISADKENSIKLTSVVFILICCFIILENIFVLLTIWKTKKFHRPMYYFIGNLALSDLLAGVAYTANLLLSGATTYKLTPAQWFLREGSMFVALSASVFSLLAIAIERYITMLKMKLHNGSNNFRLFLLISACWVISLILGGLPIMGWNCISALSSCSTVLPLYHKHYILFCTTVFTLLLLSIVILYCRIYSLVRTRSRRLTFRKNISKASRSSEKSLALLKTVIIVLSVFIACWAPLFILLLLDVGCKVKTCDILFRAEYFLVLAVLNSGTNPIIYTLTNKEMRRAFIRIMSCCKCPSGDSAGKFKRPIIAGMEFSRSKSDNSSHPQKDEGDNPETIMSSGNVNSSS

[6] = fluconazole-exposed Candida albicans growth modulators – fluorescence, retest, confirmation (AID 2467); format: functional, cell-based
[7] = molecular target: T3, Streptokinase A (Streptococcus pyogenes serotype M1, UniProt P10520); test: viability-normalized secreted streptokinase activity reduction – plasminogen activation absorbance, OD405, dose response (AID 1914); format: functional, Streptococcus pyogenes M1 GAS;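 further: secreted streptokinase activity via plasminogen activation per viability signal from cell pellet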
T3 sequence (P10520 whole entry): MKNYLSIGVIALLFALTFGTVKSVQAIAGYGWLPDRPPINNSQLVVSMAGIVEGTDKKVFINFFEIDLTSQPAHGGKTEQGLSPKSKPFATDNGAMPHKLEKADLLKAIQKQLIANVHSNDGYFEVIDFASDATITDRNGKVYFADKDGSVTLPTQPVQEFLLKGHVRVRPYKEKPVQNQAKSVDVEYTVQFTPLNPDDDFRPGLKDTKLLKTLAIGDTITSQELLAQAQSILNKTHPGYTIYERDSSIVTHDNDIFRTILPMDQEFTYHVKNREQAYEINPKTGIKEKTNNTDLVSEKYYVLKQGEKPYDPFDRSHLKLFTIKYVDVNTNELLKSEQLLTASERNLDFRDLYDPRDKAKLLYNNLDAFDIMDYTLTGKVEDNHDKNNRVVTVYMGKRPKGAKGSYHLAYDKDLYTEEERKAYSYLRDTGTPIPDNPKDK

[8] = molecular target: T4, Serine/threonine-protein phosphatase (Candida dubliniensis (strain CD36 / CBS 7987 / NCPF 3949 / NRRLY-17841) (Yeast), UniProt B9W6M3); test: blockers of CaCl2-induced CDRE-lacZ signaling – S. cerevisiae, luminescence, secondary, dose response (AID 2388); format: functional, cell-based;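 further: yeast reporter cells carrying a calcineurin-responsive lacZ construct stimulated with calcium chloride; luminescent beta-galactosidase reporter signal in whole cells rather than isolated phosphatase activity; potency for inhibition where a drop in reporter signal means calcineurin blockade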
T4 sequence (B9W6M3 whole entry): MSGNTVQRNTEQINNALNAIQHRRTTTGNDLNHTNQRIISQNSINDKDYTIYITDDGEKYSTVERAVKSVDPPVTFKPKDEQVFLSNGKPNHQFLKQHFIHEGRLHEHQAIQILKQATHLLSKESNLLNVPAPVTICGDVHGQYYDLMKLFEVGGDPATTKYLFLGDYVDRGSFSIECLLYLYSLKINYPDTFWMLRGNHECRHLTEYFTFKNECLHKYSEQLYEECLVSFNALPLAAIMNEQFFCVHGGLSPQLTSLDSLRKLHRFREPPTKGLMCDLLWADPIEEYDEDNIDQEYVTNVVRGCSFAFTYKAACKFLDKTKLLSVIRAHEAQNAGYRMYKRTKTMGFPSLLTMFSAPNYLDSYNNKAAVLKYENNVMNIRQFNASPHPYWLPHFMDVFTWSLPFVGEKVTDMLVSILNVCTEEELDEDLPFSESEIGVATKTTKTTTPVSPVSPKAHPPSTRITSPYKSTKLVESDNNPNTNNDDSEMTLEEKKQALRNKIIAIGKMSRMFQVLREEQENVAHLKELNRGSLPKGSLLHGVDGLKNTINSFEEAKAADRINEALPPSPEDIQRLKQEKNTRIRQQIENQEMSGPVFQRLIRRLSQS

In the case of Oc1ccc(/C=N\Nc2cc(N3CCOCC3)nc(N3CCOCC3)n2)c(O)c1, the IC50 [1] is reported as 7.15 µM (active).

For COc1cc(NC(=O)Cn2ncc(Cl)c(Cl)c2=O)c(C)cc1[N+](=O)[O-], the IC50 [2] was 1.32 µM (active), the AC50 [3] was 23.2 µM (active) and the AC50 [4] was 29 µM (active). For the same molecule, the IC50 [5] was > 49.8 µM (not active).

In the case of Cc1ccc(C)c(S(=O)(=O)N2CCN(Cc3ccc(O)c4ncccc34)CC2)c1, the EC50 [6] is reported as 1.14 µM (active), the EC50 [7] is reported as > 150 µM (not active) and the EC50 [8] is reported as 36 µM (active).
